# Where two headings read alike, the source gives them in different places.
# Key:
# [1] = system: PPARG (murine PPARg2 or full-length human PPARg co-transfected into COS-1 cells); assay: Cell-based transactivation assay (3x PPRE-luciferase reporter, COS-1 cells); details: PPRE::Luc reporter
# Method: PPRE is a DNA that contains a binding site for PPARG; thus PPRE is a PPAR response element, used herein as a promoter reporter. The binding site is a DR1 response element with the sequence [NT] repeated 3 times in tandem and then fused to a construct for luciferase. Thus, PPRE is the basis of the cell based transactivation assay described below. The plasmid DNA is co-transfected along with a plasmid for PPARG into COS-1 cells. After an overnight incubation, cells are treated with DMSO or compounds. […] Transfected cells were plated in white Perkin Elmer 384-well plates and incubated 4 hours. […] After 18 hour incubation, treated cells were developed with Brite Lite Plus (Perkin Elmer) and read in 384-well Luminescence Perkin Elmer EnVision Multilabel plate reader. Graphs were plotted in triplicate in GraphPad Prism Software as fold change of treated cells over DMSO control cells.
# [2] = biological target: T1, GST-PPARG-LBD (Homo sapiens, UniProt P37231); assay: Lanthascreen PPARG competitive binding assay (Invitrogen)
# T1 construct: A mixture of 5 nM GST-PPARG-LBD; purchased Invitrogen
# T1 sequence (P37231 238-503 limits assumed): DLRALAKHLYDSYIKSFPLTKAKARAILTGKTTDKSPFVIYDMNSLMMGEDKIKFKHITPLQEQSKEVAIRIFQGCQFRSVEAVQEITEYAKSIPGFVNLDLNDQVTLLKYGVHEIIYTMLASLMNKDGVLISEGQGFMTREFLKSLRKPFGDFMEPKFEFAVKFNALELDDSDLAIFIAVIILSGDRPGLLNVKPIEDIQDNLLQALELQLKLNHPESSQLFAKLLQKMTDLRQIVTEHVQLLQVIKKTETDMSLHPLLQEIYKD
# Method: The assay was performed according to manufacturer protocol. A mixture of 5 nM GST-PPARG-LBD, 5 nM Tb-GST-antibody, 5 nM Fluormone Pan-PPAR. Green, and serial dilutions of the experimental compound, beginning at 10 μM downwards, was added to wells of black 384-well low-volume plates (Greiner) to a total volume of 18 μL. All dilutions were made in TR-FRET assay buffer C. DMSO at 2% final concentration was used as a no-ligand control. Experiment was performed in triplicate, and incubated for 2 hours in the dark prior to assay read in Perkin Elmer ViewLux ultra HTS microplate reader. FRET signal was measured by excitation at […] and emission at 520 nm for fluorcscein and 490 nm for terbium. Fold change over DMSO was calculated using GraphPad Prism Software (La Jolla, Calif.) by calculating 520 nm/490 nm ratio. Graphs were plotted as fold change of FRET signal for compound treatment over DMSO-only control.
# [3] = Table 3, Lantha 1, read-out: IC50 (nM) Lantha 1
# [4] = Table 3, Lantha 2, read-out: IC50 (nM) Lantha 2
Structure (SMILES),transactivation of the reporter relative to rosiglitazone response [1],"IC50 [2, 3] [nM]","IC50 [2, 4] [nM]",activation of the PPRE reporter [1]
COc1ccc(C(=O)n2c(C)c(Cc3cccc(O[C@@H](C)C(=O)O)c3)c3cc(OC(F)(F)F)ccc32)cc1 [MRL24],about 25 % of rosiglitazone response,,,
Cc1nn(Cc2ccc(-c3ccccc3C(=O)O)cc2)c2ccc(C(=O)NC3CCCC3)cc12 [compound 21],,11.5,870,
COCCNC(=O)c1ccc2c(c1)c(C)nn2Cc1ccc(-c2ccccc2C(=O)O)cc1 [compound 22],,> 100,824,
Cc1nn(Cc2ccc(-c3ccccc3C(=O)O)cc2)c2ccc(C(=O)NC3CCCCC3)cc12 [compound 23],,560,562,
Cc1nn(Cc2ccc(-c3ccccc3C(=O)O)cc2)c2ccc(C(=O)NC3CCCCCC3)cc12 [compound 24],,204,176,
Cc1nn(Cc2ccc(-c3ccccc3C(=O)O)cc2)c2ccc(C(=O)NC3CCC(C)CC3)cc12 (centres unmarked) [compound 25],,255,82.8,
Cc1nn(Cc2ccc(-c3ccccc3C(=O)O)cc2)c2ccc(C(=O)N[C@@H](C)c3cccc(C(C)C)c3)cc12 [compound 26],,23.4,94.8,
Cc1ccc([C@H](C)NC(=O)c2ccc3c(c2)c(C)nn3Cc2ccc(-c3ccccc3C(=O)O)cc2)cc1 [compound 27],,,31.8,
CCC(NC(=O)c1ccc2c(c1)c(C)nn2Cc1ccc(-c2ccccc2C(=O)O)cc1)c1ccccc1 (centres unmarked) [compound 28],,,0.579,
Cc1nn(Cc2ccc(-c3ccccc3C(=O)O)cc2)c2ccc(C(=O)N[C@@H](C)c3cccc(C4CC4)c3)cc12 [compound 29],,,18.8,
Cc1nn(Cc2ccc(-c3ccccc3C(=O)O)cc2)c2ccc(C(=O)N[C@H](C)C3CCCCC3)cc12 [compound 30],,,21.6,
Cc1nn(Cc2ccc(-c3ccccc3C(=O)O)cc2)c2ccc(C(=O)N[C@@H](C)C3CCCCC3)cc12 [compound 31],,,41.7,
COC[C@H](C)NC(=O)c1ccc2c(c1)c(C)nn2Cc1ccc(-c2ccccc2C(=O)O)cc1 [compound 32],,,367,
Cc1nn(Cc2ccc(-c3ccccc3C(=O)O)cc2)c2ccc(C(=O)N[C@H]3COc4ccccc4C3)cc12 [compound 33],,,235,
Cc1nn(Cc2ccc(-c3ccccc3C(=O)O)cc2)c2ccc(C(=O)N[C@@H]3COc4ccccc4C3)cc12 [compound 34],,,147,
CCCCNC(=O)c1ccc2c(c1)c(C)nn2Cc1ccc(-c2ccccc2C(=O)O)cc1 [compound 35],,76.3,84.1,
CCOCCNC(=O)c1ccc2c(c1)c(C)nn2Cc1ccc(-c2ccccc2C(=O)O)cc1 [compound 36],,4420,344,
COCCCNC(=O)c1ccc2c(c1)c(C)nn2Cc1ccc(-c2ccccc2C(=O)O)cc1 [compound 37],,1820,1740,
Cc1nn(Cc2ccc(-c3ccccc3C(=O)O)cc2)c2ccc(C(=O)NCC3CCC(C)CC3)cc12 (centres unmarked) [compound 38],,118,82.8,

Structure (SMILES),transactivation of the reporter relative to rosiglitazone response [1],"IC50 [2, 3] [nM]","IC50 [2, 4] [nM]",activation of the PPRE reporter [1]
Cc1nn(Cc2ccc(-c3ccccc3C(N)=O)cc2)c2ccc(C(=O)N[C@@H](C)c3ccc(Br)cc3)cc12 [compound 39],,,16.1,
Cc1nn(Cc2ccc(-c3ccccc3C#N)cc2)c2ccc(C(=O)N[C@@H](C)c3ccc(Br)cc3)cc12 [compound 40],,40.8,37.7,
Cc1nn(Cc2ccc(-c3ccccc3-c3nnn[nH]3)cc2)c2ccc(C(=O)N[C@@H](C)c3ccc(Br)cc3)cc12 [compound 41],,,2.6,
Cc1nn(Cc2ccc(-c3ccccc3C(=O)O)cc2)c2ccc(C(=O)N[C@@H](C)c3ccc(Br)cc3)cc12 [compound 42],,9.83,2.8,
CC[C@H](NC(=O)c1ccc2c(c1)c(C)nn2Cc1ccc(-c2ccccc2C(=O)O)cc1)c1ccccc1 [compound 43],,,13,
COCCNC(=O)c1ccc2c(c1)c(C(C)C)nn2Cc1ccc(-c2ccccc2C(=O)O)cc1 [compound 46],,359,432,
CCC(NC(=O)c1ccc2c(c1)c(C(C)C)nn2Cc1ccc(-c2ccccc2C(=O)O)cc1)c1ccccc1 (centres unmarked) [compound 47],,1.85,0.681,
CC(C)c1nn(Cc2ccc(-c3ccccc3C(=O)O)cc2)c2ccc(C(=O)NC3CCCC3)cc12 [compound 48],,133,259,
CC[C@H](NC(=O)c1ccc2c(c1)c(C(C)C)nn2Cc1ccc(-c2ccccc2C(=O)O)cc1)c1ccc(Br)cc1 [compound 49],,,0.119,
CC(C)c1nn(Cc2ccc(-c3ccccc3C(=O)O)cc2)c2ccc(C(=O)N[C@@H](C)c3ccc(Br)cc3)cc12 [compound 50],,19.9,15.2,
C=C(C)c1nn(Cc2ccc(-c3ccccc3C(=O)O)cc2)c2ccc(C(=O)NCCOC)cc12 [compound 51],,120,166,
Cc1nn(Cc2ccccc2)c2ccc(C(=O)N[C@@H](C)c3ccc(Br)cc3)cc12 [compound 52],,713,932,
Cc1nn(Cc2ccc(Cl)cc2)c2ccc(C(=O)N[C@@H](C)c3ccc(Br)cc3)cc12 [compound 53],,,1050,
Cc1nn(Cc2cccc(O[C@H](C)C(=O)O)c2)c2ccc(C(=O)N[C@@H](C)c3ccc(Br)cc3)cc12 [compound 54],,,21.6,
Cc1nn(Cc2ccccc2C#N)c2ccc(C(=O)N[C@@H](C)c3ccc(Br)cc3)cc12 [compound 55],,,32.2,
Cc1nn(Cc2ccc(C3(C(=O)O)CC3)cc2)c2ccc(C(=O)N[C@@H](C)c3ccc(Br)cc3)cc12 [compound 56],,,144,
Cc1nn(Cc2ccccn2)c2ccc(C(=O)N[C@@H](C)c3ccc(Br)cc3)cc12 [compound 57],,,877,
COCCNC(=O)c1ccc2c(c1)c(C)nn2Cc1cccc(C#N)c1 [compound 58],,,4770,
CN(CCOc1ccc(CC2SC(=O)NC2=O)cc1)c1ccccn1 (centres unmarked) [rosiglitazone],,,,about 5 fold
